This is an account of results in patent publication US8546375B2, “(3-(4-(aminomethyl)phenoxy or phenylthio)azetidin-1-yl)(5-phenyl-1,3,4-oxadiazol-2-yl)methanone compounds” (AstraZeneca AB, priority 2010, dated 2013).

By IC50 is commonly meant the concentration at which inhibition is half-maximal.

Counter-ions that a name gives are not always drawn. Bounds are passed on as bounds.

In one test the target is T1, Melanin Concentrating Hormone Receptor 1 (MCHR1) (Homo sapiens, UniProt Q99705).
T1 construct: expressed in transfected cells
T1 sequence (Q99705 whole entry): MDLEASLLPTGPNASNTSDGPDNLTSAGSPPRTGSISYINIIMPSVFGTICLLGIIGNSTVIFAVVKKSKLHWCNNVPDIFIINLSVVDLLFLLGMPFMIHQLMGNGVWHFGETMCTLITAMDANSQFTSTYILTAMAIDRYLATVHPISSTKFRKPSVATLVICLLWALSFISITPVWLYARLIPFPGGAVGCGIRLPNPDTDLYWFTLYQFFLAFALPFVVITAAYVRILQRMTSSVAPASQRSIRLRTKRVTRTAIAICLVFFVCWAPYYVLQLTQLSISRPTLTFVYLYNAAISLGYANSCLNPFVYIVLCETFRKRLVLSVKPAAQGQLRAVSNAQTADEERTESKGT
Briefly: MCHR1 Receptor Activation Assay (GTPγ^35S). The format is biochemical. To be noted: read-out: GTPγ^35S IC50.
For `Cc1cc(CN2CCOCC2)ccc1OC1CN(C(=O)c2nnc(-c3ccccc3)o2)C1` [Example 14, (3-(2-Methyl-4-(morpholinomethyl)phenoxy)azetidin-1-yl)(5-phenyl-1,3,4-oxadiazol-2-yl)methanone], the IC50 came to 30 nM. The same measure, in the same setting: then `O=C(c1nnc(-c2ccc(C(F)(F)F)cc2)o1)N1CC(Oc2ccc(CN3CCCC3)cc2)C1` [Example 5, (3-(4-(Pyrrolidin-1-ylmethyl)phenoxy)azetidin-1-yl)(5-(4-(trifluoromethyl)phenyl)-1,3,4-oxadiazol-2-yl)methanone formate], with 15 nM.

For the molecule `Cc1ccc(-c2nnc(C(=O)N3CC(Oc4ccc(CN5CCOCC5)cc4C)C3)o2)cc1` [Example 13, (3-(2-Methyl-4-(morpholinomethyl)phenoxy)azetidin-1-yl)(5-p-tolyl-1,3,4-oxadiazol-2-yl)methanone], the IC50 was 29 nM.

With `O=C(c1nnc(-c2ccccc2)o1)N1CC(Oc2ccc(CN3CCCC3)c(F)c2)C1` [Example 31, (3-(3-Fluoro-4-(pyrrolidin-1-ylmethyl)phenoxy)azetidin-1-yl)(5-phenyl-1,3,4-oxadiazol-2-yl)methanone], the IC50 is 20 nM. With `CN(C)Cc1ccc(SC2CN(C(=O)c3nnc(-c4ccccc4)o3)C2)cc1` [Example 60, (3-(4-((Dimethylamino)methyl)phenylthio)azetidin-1-yl)(5-phenyl-1,3,4-oxadiazol-2-yl)methanone], the IC50 amounted to 19 nM.

`COc1ccc(-c2nnc(C(=O)N3CC(Oc4ccc(CN5CCCC(O)CC5)cc4)C3)o2)cc1` (centres unmarked) [Example 86, (3-(4-((4-hydroxyazepan-1-yl)methyl)phenoxy)azetidin-1-yl)(5-(4-methoxyphenyl)-1,3,4-oxadiazol-2-yl)methanone]: the IC50 amounted to 15 nM. With `COc1ccc(-c2nnc(C(=O)N3CC(Oc4ccc(CN5CCC(C)(CO)C5)c(C)c4)C3)o2)cc1` (centres unmarked) [Example 91, (3-(4-((3-(hydroxymethyl)-3-methylpyrrolidin-1-yl)methyl)-3-methylphenoxy)azetidin-1-yl)(5-(4-methoxyphenyl)-1,3,4-oxadiazol-2-yl)methanone], the IC50 came out at 11 nM. In the case of `COc1ccc(-c2nnc(C(=O)N3CC(Oc4ccc(CN5CCN(C)CC5)c(Cl)c4)C3)o2)cc1` [Example 49, (3-(3-Chloro-4-((4-methylpiperazin-1-yl)methyl)phenoxy)azetidin-1-yl)(5-(4-methoxyphenyl)-1,3,4-oxadiazol-2-yl)methanone], the IC50 was 37 nM. On the same count and under the same terms, then `CC(=O)N1CCN(Cc2ccc(OC3CN(C(=O)c4nnc(-c5ccccc5)o4)C3)cc2)CC1` [Example 23, 1-(4-(4-(1-(5-Phenyl-1,3,4-oxadiazole-2-carbonyl)azetidin-3-yloxy)benzyl)piperazin-1-yl)ethanone], with 99 nM; and `O=C(c1nnc(-c2ccccc2)o1)N1CC(Sc2ccc(CNC3CC3)cc2)C1` [Example 66, (3-(4-((Cyclopropylamino)methyl)phenylthio)azetidin-1-yl)(5-phenyl-1,3,4-oxadiazol-2-yl)methanone], with 10 nM. With `Cc1cc(OC2CN(C(=O)c3nnc(-c4ccc(Cl)cc4)o3)C2)ccc1CN(C)C` [Example 44, (5-(4-Chlorophenyl)-1,3,4-oxadiazol-2-yl)(3-(4-((dimethylamino)methyl)-3-methylphenoxy)azetidin-1-yl)methanone], the IC50 was found to be 10 nM. The same measure, in the same setting: under `CN(C)Cc1ccc(OC2CN(C(=O)c3nnc(-c4ccccc4)o3)C2)cc1F` [Example 26, (3-(4-((Dimethylamino)methyl)-3-fluorophenoxy)azetidin-1-yl)(5-phenyl-1,3,4-oxadiazol-2-yl)methanone] stands 30 nM. The same measure, in the same setting: under `CN1CCN(Cc2ccc(OC3CN(C(=O)c4nnc(-c5ccccc5)o4)C3)cc2Cl)CC1` [Example 50, (3-(3-Chloro-4-((4-methylpiperazin-1-yl)methyl)phenoxy)azetidin-1-yl)(5-phenyl-1,3,4-oxadiazol-2-yl)methanone] stands 35 nM; under `CNCc1ccc(SC2CN(C(=O)c3nnc(-c4ccccc4)o3)C2)cc1` [Example 63, (3-(4-((Methylamino)methyl)phenylthio)azetidin-1-yl)(5-phenyl-1,3,4-oxadiazol-2-yl)methanone hydrochloride], 23 nM; under `COc1ccc(-c2nnc(C(=O)N3CC(Oc4ccc(CN5CC(C)(O)C5)cc4)C3)o2)cc1` [Example 76, (3-(4-((3-Hydroxy-3-methylazetidin-1-yl)methyl)phenoxy)azetidin-1-yl)(5-(4-methoxyphenyl)-1,3,4-oxadiazol-2-yl)methanone], 23 nM. Still for that read-out and setting: then `COc1ccc(-c2nnc(C(=O)N3CC(Oc4ccc(CN5CC(C)(O)C5)c(C)c4)C3)o2)cc1` [Example 80, (3-(4-((3-Hydroxy-3-methylazetidin-1-yl)methyl)-3-methylphenoxy)azetidin-1-yl)(5-(4-methoxyphenyl)-1,3,4-oxadiazol-2-yl)methanone], with 23 nM; and `O=C(c1nnc(-c2ccc(F)cc2)o1)N1CC(Oc2ccc(CN3CCCC3)cc2)C1` [Example 4, (5-(4-Fluorophenyl)-1,3,4-oxadiazol-2-yl)(3-(4-(pyrrolidin-1-ylmethyl)phenoxy)azetidin-1-yl)methanone], with 20 nM; and `CN(Cc1ccc(SC2CN(C(=O)c3nnc(-c4ccccc4)o3)C2)cc1)C1CCOCC1` [Example 64], with 12 nM. Consider `CCC1(O)CN(Cc2ccc(OC3CN(C(=O)c4nnc(-c5ccc(OC)cc5)o4)C3)cc2C)C1` [Example 73, (3-(4-((3-Ethyl-3-hydroxyazetidin-1-yl)methyl)-3-methylphenoxy)azetidin-1-yl)(5-(4-methoxyphenyl)-1,3,4-oxadiazol-2-yl)methanone], for which the IC50 turned out to be 14 nM. Turning to `COc1ccc(-c2nnc(C(=O)N3CC(Oc4ccc(CN5CCN(C(C)=O)CC5)cc4)C3)o2)cc1` [Example 24, 1-(4-(4-(1-(5-(4-Methoxyphenyl)-1,3,4-oxadiazole-2-carbonyl)azetidin-3-yloxy)benzyl)piperazin-1-yl)ethanone], the IC50 was determined as 44 nM. As for `COc1ccc(-c2nnc(C(=O)N3CC(Oc4ccc(CN5CCCC(C)(O)CC5)cc4)C3)o2)cc1` (centres unmarked) [Example 88, (3-(4-((4-hydroxy-4-methylazepan-1-yl)methyl)phenoxy)azetidin-1-yl)(5-(4-methoxyphenyl)-1,3,4-oxadiazol-2-yl)methanone], the IC50 worked out at 17 nM.

`COc1ccc(-c2nnc(C(=O)N3CC(Oc4ccc(CN5CCC(C)(CO)CC5)c(C)c4)C3)o2)cc1` [Example 82, (3-(4-((4-(Hydroxymethyl)-4-methylpiperidin-1-yl)methyl)-3-methylphenoxy)azetidin-1-yl)(5-(4-methoxyphenyl)-1,3,4-oxadiazol-2-yl)methanone]: the IC50 came to 22 nM. The same measure, in the same setting: then `O=C(c1nnc(-c2ccccc2)o1)N1CC(Sc2ccc(CN3CC(CO)C3)cc2)C1` [Example 67, (3-(4-((3-(Hydroxymethyl)azetidin-1-yl)methyl)phenylthio)azetidin-1-yl)(5-phenyl-1,3,4-oxadiazol-2-yl)methanone], with 23 nM.

Regarding `COc1ccc(-c2nnc(C(=O)N3CC(Oc4ccc(CN5CCCC5)c(C(F)(F)F)c4)C3)o2)cc1` [Example 46, (5-(4-Methoxyphenyl)-1,3,4-oxadiazol-2-yl)(3-(4-(pyrrolidin-1-ylmethyl)-3-(trifluoromethyl)phenoxy)azetidin-1-yl)methanone], the IC50 is 18 nM. On the same count and under the same terms, under `COC1CN(Cc2ccc(OC3CN(C(=O)c4nnc(-c5ccccc5)o4)C3)c(Cl)c2)C1` [Example 57, (3-(2-Chloro-4-((3-methoxyazetidin-1-yl)methyl)phenoxy)azetidin-1-yl)(5-phenyl-1,3,4-oxadiazol-2-yl)methanone] stands 18 nM; under `COc1ccc(-c2nnc(C(=O)N3CC(Oc4ccc(CN5CC(C)(O)C5)cc4Cl)C3)o2)cc1` [Example 79, (3-(2-Chloro-4-((3-hydroxy-3-methylazetidin-1-yl)methyl)phenoxy)azetidin-1-yl)(5-(4-methoxyphenyl)-1,3,4-oxadiazol-2-yl)methanone], 34 nM; under `CNCc1ccc(OC2CN(C(=O)c3nnc(-c4ccc(OC)cc4)o3)C2)c(C)c1` [Example 54, (5-(4-Methoxyphenyl)-1,3,4-oxadiazol-2-yl)(3-(2-methyl-4-((methylamino)methyl)phenoxy)azetidin-1-yl)methanone], 31 nM. On the same count and under the same terms, then `CN(C)Cc1ccc(OC2CN(C(=O)c3nnc(-c4ccccc4)o3)C2)cc1Cl` [Example 48, (3-(3-Chloro-4-((dimethylamino)methyl)phenoxy)azetidin-1-yl)(5-phenyl-1,3,4-oxadiazol-2-yl)methanone], with 18 nM; and `CC1(O)CN(Cc2ccc(OC3CN(C(=O)c4nnc(-c5ccccc5)o4)C3)c(Cl)c2)C1` [Example 78, (3-(2-Chloro-4-((3-hydroxy-3-methylazetidin-1-yl)methyl)phenoxy)azetidin-1-yl)(5-phenyl-1,3,4-oxadiazol-2-yl)methanone], with 42 nM.

Staying with this test, now noted: separated enantiomers of Example 84 (chiral chromatography fractions); assay not given; read-out: IC50.
Turning to `COc1ccc(-c2nnc(C(=O)N3CC(Oc4ccc(CN5CCC(C)(CO)C5)cc4)C3)o2)cc1` (single isomer, unassigned; (-)) [Example E1, (−)(3-(4-((3-(hydroxymethyl)-3-methylpyrrolidin-1-yl)methyl)phenoxy)azetidin-1-yl)(5-(4-methoxyphenyl)-1,3,4-oxadiazol-2-yl)methanone], the IC50 was found to be 28 nM.

Still in this test, the particulars now being: when tested in the above referenced assays (MCH binding assay; MCHR1 receptor activation assay); read-out: IC50 value.
`Cc1cc(OC2CN(C(=O)c3nnc(-c4ccccc4)o3)C2)ccc1CN(C1CC1)C1CC1` [[3-[4-[(dicyclopropylamino)methyl]-3-methyl-phenoxy]azetidin-1-yl]-(5-phenyl-1,3,4-oxadiazol-2-yl)methanone]: the IC50 was at least 100 nM. For the molecule `COCCN(CCOC)Cc1ccc(OC2CN(C(=O)c3nnc(-c4ccccc4)o3)C2)cc1` [(3-(4-((bis(2-methoxyethyl)amino)methyl)phenoxy)azetidin-1-yl)(5-phenyl-1,3,4-oxadiazol-2-yl)methanone], the IC50 is at least 100 nM.
